Data reported in article PMC3027097 (Journal of Translational Medicine, 2011).

Legend:
[1] = system: bovine aortic endothelial cells (EC); assay: hFN-induced cell proliferation assay (cell number), EC; assay type: cell-based
Experimental: (§1) In vitro studies were performed on cell cultures of ECs or VSMCs, cultured in Dulbecco's modified Eagle's medium (DMEM; Sigma-Aldrich, Milan, Italy) as previously described and validated. Cell culture plates were filled with 10 μg/cm^2 of human fibronectin (hFN, Millipore®, Bedford, MA, USA) as described. All experiments were performed in triplicate with cells between passages 5 and 9.
(§2) Cell cultures were prepared as previously described. Briefly, cells were seeded at density of 100000 per well in six-well plates, serum starved, pre-incubated at 37°C for 30' with c(RGDf[NMe]V) or RGDechiHCit (10^-6 M). Proliferation was induced using hFN (100 μg/ml). Cell number was measured at 3, 6 and 20 h after stimulation as previously described.

[2] = system: vascular smooth muscle cells (VSMC); assay: hFN-induced cell proliferation assay (cell number), VSMC; assay type: cell-based
Experimental: as §1, §2

[3] = system: ERK2 phosphorylation in EC; assay: hFN-induced ERK2 phosphorylation, western blot, EC; assay type: cell-based; settings: densitometry
Experimental: as §1
(§3) Immunoblot analyses were performed as previously described and validated. Mouse monoclonal antibodies to extracellular signal regulated kinase (ERK2) and phospho-ERK, anti-rabbit VEGF and actin were from Santa Cruz Biotecnology (Santa Cruz, CA, USA). Levels of VEGF were determined using an antibody raised against VEGF-165 (Santa Cruz Biotechnology). Experiments were performed in triplicate to ensure reproducibility. Data are presented as arbitrary densitometry units (ADU) after normalization for the total corresponding protein or actin as internal control.

[4] = system: ERK2 phosphorylation in VSMC; assay: hFN-induced ERK2 phosphorylation, western blot, VSMC; assay type: cell-based; settings: densitometry
Experimental: as §1, §3

[5] = system: VEGF production in bovine aortic endothelial cells (ECs); assay: VEGF quantification by western blot, EC; assay type: cell-based; settings: 6 hours of stimulation with hFN, peptides 10^-6 M, mean ± SEM
Experimental: VEGF production was measured as previously described [26]. Briefly, ECs were seeded at a density of 600000 per well in six well plates, serum starved overnight, seeded with c(RGDf[NMe]V) or RGDechiHCit (10^-6 M) and then stimulated with hFN for 6 hours.
Immunoblot analyses were performed as previously described and validated [23, 28]. […] Levels of VEGF were determined using an antibody raised against VEGF-165 (Santa Cruz Biotechnology) [26]. Experiments were performed in triplicate to ensure reproducibility. Data are presented as arbitrary densitometry units (ADU) after normalization for the total corresponding protein or actin as internal control [24].

[6] = system: bovine aortic endothelial cells (ECs); assay: Endothelial Matrigel assay (tube formation); assay type: cell-based; settings: hFN 100 μg/ml, peptides 10^-6 M, 37°C, mean ± SEM
Experimental: The formation of network-like structures by ECs on an extracellular matrix (ECM)-like 3D gel consisting of Matrigel® (BD Biosciences, Bedford, MA, USA), was performed as previously described and validated [27, 28]. The six-well multidishes were coated with growth factor-reduced Matrigel in according to the manufacturer's instructions. ECs (5×10^4) were seeded with c(RGDf[NMe]V) or RGDechiHCit (10^-6 M), in the absence (negative control) or presence (100 μg/ml) of hFN [24]. Cells were incubated at 37°C for 24h in 1 ml of DMEM. […] Network formation was observed using an inverted phase-contrast microscope (Zeiss). Representative fields were taken, and the average of the total number of complete tubes formed by cells was counted in 15 random fields by two independent investigators.

WKY rats = assay: Wound healing assay, full-thickness skin wound; assay type: in vivo, rat
Experimental: (§4) Wound healing assay was performed on 14-week-old (weight 293 ± 21 g) normotensive WKY male rats (Charles River Laboratories, Calco (LC), Italy; n = 18), and Matrigel plugs experiments were carried out on 16-week-old (weight 33 ± 4 g) c57BL/6 mice (Charles River Laboratories, Milan, Italy; n = 13). All animal procedures were performed in accordance with the Guide for the Care and Use of Laboratory Animals published by the National Institutes of Health in the United States (NIH Publication No. 85- 23, revised 1996) and approved by the Ethics Committee for the Use of Animals in Research of "Federico II" University.
The rats (n = 18) were anesthetized using vaporized isoflurane (4%, Abbott) and maintained by mask ventilation (isoflurane 1.8%)[29]. The dorsum was shaved by applying a depilatory creme (Veet, Reckitt-Benckiser, Milano, Italy) and disinfected with povidone iodine scrub. […] Two operators blinded to the identity of the sample examined and measured wound areas every day, for 8 days. Direct measurements of wound region were determined by digital planimetry (pixel area), and subsequent analysis was performed using a computer-assisted image analyzer (ImageJ software, version 1.41, National Institutes of Health, Bethesda, MD, USA). Wound healing was quantified as a percentage of the original injury size. […]

c57BL/6 mice = assay: Matrigel plugs, EC infiltration by lectin staining; assay type: in vivo, mouse; settings: s.c. Matrigel with VEGF and 10^-5M peptide, seven days, mean ± SEM
Experimental: as §4
Mice (n = 13), anesthetized as described above, were subcutaneously injected midway on the dorsal side, using sterile conditions, with 0.2 ml of Matrigel® basement matrix, pre-mixed with 10^-6M VEGF and 10^-5M c(RGDf[NMe]V) (n = 4), 10^-6M VEGF and 10^-5M RGDechiHCit (n = 5), or 10^-6M VEGF alone (n = 4). After seven days, mice were euthanized and the implanted plugs were harvested from underneath the skin, fixed in 10% neutral-buffered formalin solution and then embedded in paraffin. Invading ECs were identified and quantified by analysis of lectin immunostained sections, as described.
All tissues were cut in 5 μm sections and slides were counterstained with a standard mixture of hematoxylin and eosin. […]

[7] = human serum (Lonza, Basel, Switzerland); settings: 37°C, up to 24h

CC(C)[C@H]1C(=O)N[C@@H](CCCNC(=N)N)C(=O)NCC(=O)N[C@@H](CC(=O)O)C(=O)N[C@H](Cc2ccccc2)C(=O)N1C [c(RGDf[NMe]V)]
EC proliferation ([1]; hFN 100 μg/ml stimulation, peptides 10^-6 M pre-incubated 30' at 37°C, after 6 hours, mean ± SEM): +0.6 ± 0.38 fold over basal | EC proliferation, peptide given alone ([1]; without hFN): did not affect EC proliferation | VSMC proliferation ([2]; hFN 100 μg/ml stimulation, peptides 10^-6 M, mean ± SEM, NS): +0.9 ± 0.09 fold over basal | VSMC proliferative response to hFN at 20h ([2]; hFN stimulation, 20h): induced an attenuation of such proliferative response | hFN-induced phosphorylation of ERK2 in EC [3]: significantly inhibited | hFN-induced phosphorylation of ERK2 in VSMC [4]: decreased such activation | VEGF expression levels in EC [5]: +3.19 ± 0.73 fold over basal, ADU | tube formation on Matrigel [6]: 14.11 ± 3.9 branches per 10000 μm^2 | wound healing (closure of full-thickness wounds) (WKY rats; pluronic gel 30% containing 10^-6 M peptide placed daily on 20 mm wound, 8 days): slowed down healing | wound histology (WKY rats; wounds excised 8 days after surgery): exhibited a retarded repair pattern | EC infiltration of Matrigel plugs (c57BL/6 mice): 0.185 ± 0.027 fold over VEGF alone

c(RGDf[NMe]V)
not cleaved [7]: After 24h of incubation chromatogram and mass profiles failed to identify any degradation product
